# From PubChem BioAssay (NCI)
#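 Grown in 96-well plates, cells were treated for 48 hours with each compound at five concentrations. Insufficient inhibition: endpoint recorded as highest concentration tested. GI50 is the concentration that inhibits growth by half. TGI: total growth inhibition.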
# Columns and labels:
# Assay in all cases: NCI-60 cell line screen, 48 h
# [1] = test system: 786-0 renal
# [2] = test system: A498 renal
# [3] = test system: A549 NSCLC
# [4] = test system: ACHN renal
# [5] = test system: BT-549 breast
# [6] = test system: CAKI-1 renal
# [7] = test system: EKVX NSCLC
# [8] = test system: HCC-2998 colon
# [9] = test system: HCT-15 colon
# [10] = test system: HL-60(TB) leukemia
# [11] = test system: HS 578T breast
# [12] = test system: HT29 colon
# [13] = test system: K-562 leukemia
# [14] = test system: LOX IMVI melanoma
# [15] = test system: M14 melanoma
# [16] = test system: MCF7 breast
# [17] = test system: MOLT-4 leukemia
# [18] = test system: NCI-H226 lung
# [19] = test system: NCI-H23 lung
# [20] = test system: NCI-H460 lung
# [21] = test system: NCI/ADR-RES ovarian
# [22] = test system: OVCAR-3 ovarian
# [23] = test system: OVCAR-4 ovarian
# [24] = test system: OVCAR-5 ovarian
# [25] = test system: OVCAR-8 ovarian
# [26] = test system: PC-3 prostate
# [27] = test system: RPMI-8226 leukemia
# [28] = test system: SF-268 CNS
# [29] = test system: SF-539 CNS
# [30] = test system: SK-MEL-28 melanoma
# [31] = test system: SK-OV-3 ovarian
# [32] = test system: SN12C renal
# [33] = test system: SNB-19 CNS
# [34] = test system: SNB-75 CNS
# [35] = test system: SR leukemia
# [36] = test system: SW-620 colon
# [37] = test system: TK-10 renal
# [38] = test system: U251 CNS
# [39] = test system: UACC-62 melanoma
# [40] = test system: UO-31 renal
# [41] = test system: CCRF-CEM leukemia
# [42] = test system: COLO 205 colon
# [43] = test system: DU-145 prostate
# [44] = test system: HCT-116 colon
# [45] = test system: HOP-62 NSCLC
# [46] = test system: HOP-92 NSCLC
# [47] = test system: IGROV1 ovarian
# [48] = test system: KM12 colon
# [49] = test system: MALME-3M melanoma
# [50] = test system: MDA-MB-231 breast
# [51] = test system: MDA-MB-435
# [52] = test system: NCI-H522 lung
# [53] = test system: RXF 393 renal
# [54] = test system: SF-295 CNS
# [55] = test system: SK-MEL-2 melanoma
# [56] = test system: SK-MEL-5 melanoma
# [57] = test system: T-47D breast
# [58] = test system: UACC-257 melanoma
smiles,measurement,setting,value
COc1ccc2c(c1)C/C(=C\c1ccc(O)c(OC)c1)C2=O,TGI,[1],> 100 µM
same,TGI,[2],> 100000 nM
same,TGI,[3],> 100 µM
same,TGI,[4],> 100 µM
same,TGI,[5],> 100 µM
same,TGI,[6],> 100 µM
same,TGI,[7],> 100 µM
same,TGI,[8],> 100000 nM
same,TGI,[9],> 100000 nM
same,TGI,[10],> 100 µM
same,TGI,[11],> 100000 nM
same,TGI,[12],> 100 µM
same,TGI,[13],> 100 µM
same,TGI,[14],> 100000 nM
same,TGI,[15],> 100 µM
same,TGI,[16],> 100 µM
same,TGI,[17],> 100 µM
same,TGI,[18],> 100 µM
same,TGI,[19],> 100 µM
same,TGI,[20],> 100 µM
same,TGI,[21],> 100 µM
same,TGI,[22],> 100000 nM
same,TGI,[23],> 100 µM
same,TGI,[24],> 100 µM
same,TGI,[25],> 100 µM
same,TGI,[26],> 100000 nM
same,TGI,[27],> 100 µM
same,TGI,[28],> 100 µM
same,TGI,[29],> 100000 nM
same,TGI,[30],> 100 µM
same,TGI,[31],> 100 µM
same,TGI,[32],> 100000 nM
same,TGI,[33],> 100 µM
same,TGI,[34],> 100 µM
same,TGI,[35],> 100 µM
same,TGI,[36],> 100 µM
same,TGI,[37],> 100000 nM
same,TGI,[38],> 100 µM
same,TGI,[39],> 100 µM
same,TGI,[40],> 100000 nM
CC(=O)OC1COC(S[As](C)C)C(OC(C)=O)C1OC(C)=O (stereo not given),GI50,[1],81.1 nM
same,TGI,[1],1.12 µM
same,GI50,[2],285 nM
same,TGI,[2],1560 nM
same,GI50,[3],3.51 µM
same,TGI,[3],> 32.4 µM
same,GI50,[4],195 nM
same,TGI,[4],1.52 µM
same,GI50,[5],755 nM
same,TGI,[5],6.22 µM
same,GI50,[6],41 nM
same,TGI,[6],0.74 µM
same,GI50,[41],44.4 nM
same,TGI,[41],152 nM
same,GI50,[42],575 nM
same,TGI,[42],4.96 µM
same,GI50,[43],70.1 nM
same,TGI,[43],902 nM
same,GI50,[7],2070 nM
same,TGI,[7],17.1 µM
same,GI50,[8],333 nM
same,TGI,[8],922 nM
same,GI50,[44],170 nM
same,TGI,[44],2040 nM
same,GI50,[9],191 nM
same,TGI,[9],1360 nM
same,GI50,[10],< 15.8 nM
same,TGI,[10],0.072 µM
same,GI50,[45],2290 nM
same,TGI,[45],14.9 µM
same,GI50,[46],33.2 nM
same,TGI,[46],280 nM
same,GI50,[11],344 nM
same,TGI,[11],916 nM
same,GI50,[12],558 nM
same,TGI,[12],> 100 µM
same,GI50,[47],225 nM
same,TGI,[47],1580 nM
same,GI50,[13],17.6 nM
same,TGI,[13],0.0913 µM
same,GI50,[48],1150 nM
same,TGI,[48],9.24 µM
same,GI50,[14],223 nM
same,TGI,[14],691 nM
same,GI50,[15],< 41.9 nM
same,TGI,[15],1.1 µM
same,GI50,[49],15.9 nM
same,TGI,[49],287 nM
same,GI50,[16],165 nM
same,TGI,[16],5.2 µM
same,GI50,[50],512 nM
same,TGI,[50],2860 nM
same,GI50,[51],64.3 nM
same,TGI,[51],358 nM
same,GI50,[17],15.2 nM
same,TGI,[17],0.0672 µM
same,GI50,[18],1470 nM
same,TGI,[18],7.9 µM
same,GI50,[19],322 nM
same,TGI,[19],4.53 µM
same,GI50,[20],1050 nM
same,TGI,[20],14.5 µM
same,GI50,[52],32.1 nM
same,TGI,[52],139 nM
same,GI50,[21],155 nM
same,TGI,[21],0.974 µM
same,GI50,[22],< 13.8 nM
same,TGI,[22],40.4 nM
same,GI50,[23],2530 nM
same,TGI,[23],24 µM
same,GI50,[24],226 nM
same,TGI,[24],1.8 µM
same,GI50,[25],735 nM
same,TGI,[25],5.31 µM
same,GI50,[26],164 nM
same,TGI,[26],2040 nM
same,TGI,[27],0.0245 µM
same,GI50,[53],338 nM
same,TGI,[53],2900 nM
same,GI50,[28],1230 nM
same,TGI,[28],11.6 µM
same,GI50,[54],2190 nM
same,TGI,[54],8.31 µM
same,GI50,[29],71.3 nM
same,TGI,[29],315 nM
same,GI50,[55],429 nM
same,TGI,[55],1990 nM
same,GI50,[30],666 nM
same,TGI,[30],8.89 µM
same,GI50,[56],65.8 nM
same,TGI,[56],253 nM
same,GI50,[31],1810 nM
same,TGI,[31],17.3 µM
same,GI50,[32],480 nM
same,TGI,[32],2740 nM
same,GI50,[33],14.7 µM
same,TGI,[33],49.5 µM
same,GI50,[34],3.49 µM
same,TGI,[34],21.7 µM
same,GI50,[36],341 nM
same,TGI,[36],1.69 µM
same,GI50,[57],2670 nM
same,TGI,[57],19.9 µM
same,GI50,[37],80 nM
same,TGI,[37],832 nM
same,GI50,[38],639 nM
same,TGI,[38],5.24 µM
same,GI50,[58],2610 nM
same,GI50,[39],285 nM
same,TGI,[39],1.61 µM
same,GI50,[40],102 nM
same,TGI,[40],805 nM
O=C1c2ccccc2-c2nnc(-c3ccccc3)cc21,TGI,[1],> 10 µM
same,TGI,[3],> 10 µM
same,TGI,[4],> 10 µM
same,TGI,[6],> 10 µM
same,TGI,[41],> 10000 nM
same,TGI,[42],> 10 µM
same,TGI,[10],> 10 µM
same,TGI,[45],> 10 µM
same,TGI,[47],> 10000 nM
same,TGI,[13],> 10 µM
same,TGI,[15],> 10 µM
same,TGI,[49],> 10000 nM
same,TGI,[16],> 10 µM
same,TGI,[51],> 10000 nM
same,TGI,[17],> 10 µM
same,TGI,[19],> 10 µM
same,TGI,[20],> 10 µM
same,TGI,[21],> 10 µM
same,TGI,[23],> 10 µM
same,TGI,[24],> 10 µM
same,TGI,[27],> 10 µM
same,TGI,[53],> 10000 nM
same,TGI,[28],> 10 µM
same,TGI,[55],> 10000 nM
same,TGI,[30],> 10 µM
same,TGI,[56],> 10000 nM
same,TGI,[31],> 10 µM
same,TGI,[34],> 10 µM
same,TGI,[35],> 10 µM
same,TGI,[36],> 10 µM
same,TGI,[57],> 10 µM
same,TGI,[38],> 10 µM
same,TGI,[39],> 10 µM
